Laboratory results: ChEMBL document CHEMBL1131788, “Isolation and structure of SCH 351633: a novel hepatitis C virus (HCV) NS3 protease inhibitor from the fungus Penicillium griseofulvum” (Bioorg Med Chem Lett, 1999)

Biological target: NS3 (Hepatitis C virus, UniProt A3EZJ3)
Assay: In vitro antiviral activity against hepatitis C virus (HCV) NS3 protease using scintillation proximity assay
Set-up: species or system Hepacivirus hominis

Sequence of NS3 (A3EZJ3 whole entry): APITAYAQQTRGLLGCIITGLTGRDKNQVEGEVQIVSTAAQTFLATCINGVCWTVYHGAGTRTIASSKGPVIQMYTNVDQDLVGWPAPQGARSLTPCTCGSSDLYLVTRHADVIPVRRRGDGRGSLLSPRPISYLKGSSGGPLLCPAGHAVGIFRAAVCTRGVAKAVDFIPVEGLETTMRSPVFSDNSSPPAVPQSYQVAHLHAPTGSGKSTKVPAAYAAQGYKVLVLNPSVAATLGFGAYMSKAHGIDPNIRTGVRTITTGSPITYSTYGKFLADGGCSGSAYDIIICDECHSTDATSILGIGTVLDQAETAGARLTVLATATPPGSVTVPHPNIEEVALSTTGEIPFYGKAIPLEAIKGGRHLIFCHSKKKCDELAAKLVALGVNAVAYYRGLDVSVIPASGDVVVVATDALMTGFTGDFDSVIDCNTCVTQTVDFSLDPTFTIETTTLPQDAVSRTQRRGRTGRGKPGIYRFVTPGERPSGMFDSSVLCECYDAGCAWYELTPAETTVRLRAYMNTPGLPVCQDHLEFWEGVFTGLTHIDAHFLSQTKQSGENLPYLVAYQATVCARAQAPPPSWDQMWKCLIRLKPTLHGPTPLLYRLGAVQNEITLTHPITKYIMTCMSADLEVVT

| Compound | IC50 [µM] |
| --- | --- |
| CC(=O)OC1OCC=C2OC(=O)C=C21 (stereo not drawn) | 36.7 |
| O=C1C=C2C(=CCOC2OC(=O)c2ccc(Br)cc2)O1 (stereo not drawn) | 37.4 |
| O=C1C=C2C(=CCOC2O)O1 (stereo not drawn) [PATULIN] | 24.7 |
